Results as given in PMC12903969, “Discovery of a Novel and Potent Kir4.1 Inhibitor as a Safe and Rapid‐Onset Antidepressant Agent in Mice” (Advanced Science, 2025).
Values joined by “and” are separate entries in the source; they are usually repeats but may differ in a detail not shown here. Identical values can stand only once.

What was measured:
mice [1] = test: Treadmill test (TT); type: in vivo; settings: chronic 10 mg kg−1 per day
Procedure: This test was designed to quantify locomotor endurance in rodents. The time (300 s) and speed (maximum: 30 rpm) parameters for the treadmill were set using a digital panel and the mice were placed in lanes. Gentle electrical probes (0.3 mA) served as motivational stimuli. Total distance traveled was automatically recorded using rotary encoder integration.

mice [2] = test: Rotarod test (RT); type: in vivo; settings: chronic 10 mg kg−1 per day
Procedure: The rotarod test was designed to evaluate the coordination and motor performance of rodents. The speed and time were set for the rod rotators. All experimental mice were allowed to adapt to a lower speed (5 rpm). For the formal test, the mice were placed on a rod spinning at 20 rpm, and the duration that the mice were able to hold on the rod at this speed was recorded. The maximum test duration was 20 min.

C57BL/6J mice [3] = test: Open field test (OFT) after chronic administration; type: in vivo; settings: chronic 10 mg kg−1 per day
Procedure: This test was used to assess anxiety‐related behaviors in the mice. C57BL/6J mice were individually habituated to a 40 × 40 × 40 cm^3 open field arena under dim light for […]. Locomotor activity during the final 5 min was digitally recorded (30 fps) and analyzed using Tracking Master (Future Life Science (Shanghai) Co., Ltd., Shanghai, China). The primary endpoints included the total ambulatory distance (cm) and center‐zone exploration frequency (20 × 20 cm^2 central area).

C57BL/6J mice [4] = test: Novelty-suppressed feeding test (NSFT); type: in vivo
Procedure: The mice were individually housed in new cages and deprived of food for 24 h. The testing equipment was a brightly lit plastic box measuring 40 × 40 × 30 cm^3 with a light intensity of 1100–1200 lux. Each mouse was positioned in a corner of the device with one food pellet located at the center. The latency to start chewing food was recorded within 5 min. Immediately thereafter, the mice were placed back in their home cage with pre‐measured food, and the amount consumed in the next 5 min was used as a baseline to account for appetite changes that might affect the outcome.

mice [5] = test: 21-day chronic administration: body weight, organ weight, serum biochemistry
mice [6] = test: Shuttle box test (SBT); type: in vivo
Procedure: This test was designed to measure learning and memory function in rodents. The shuttle box consists of two compartments connected by a freely passable gate. The mice were allowed to explore the test chamber freely for 5 min before the test to eliminate exploratory reflexes. Each mouse was placed in one compartment of the shuttle box. The conditioning protocol began with a 5‐s conditioned stimulus presentation of light (200 lux) and auditory tone (100 dB, 1000 Hz), followed immediately by a 3‐s footshock (300 µA) unconditioned stimulus. Escape to the opposite compartment during the conditioned stimulus presentation was scored as an active avoidance response, whereas escape occurring only after shock onset was recorded as […]. […] Each test session consisted of 40 trials with 10‐s inter‐trial intervals, with the number of active avoidance responses systematically recorded.

mice [7] = test: Y-maze; type: in vivo; settings: chronic 10 mg kg−1 per day
Procedure: This test was designed to evaluate spatial working memory. Briefly, mice were individually placed in a symmetrical Y‐maze and allowed to explore for 8 min. Entries were counted only when both hind paws crossed the arm threshold. Correct spatial alternation was defined as an entry into all three arms in an uninterrupted sequence (e.g., ABC, BCA or CAB each representing one alternation). The alternation percentage was derived as: [correct alternations/(total entries–2)] × 100%. After each session, the walls and floor of the maze were wiped with 75% ethanol and allowed to dry before the next animal was tested.

C57BL/6J mice after CSDS [8] = test: CSDS model, forced swim test; type: in vivo
Procedure: (§1) The 10‐day CSDS paradigm was conducted as previously described.^[ [24] ^] CD‐1 aggressive mice were singly housed in defeat cages on one side of a perforated plexiglass partition 24 h before the defeat session. Experimental C57BL/6J mice were placed daily on the resident cage side of a novel CD‐1 aggressor that rapidly initiated a physical attack on the intruder. After 10‐min of social defeat, the intruder mice were housed on the opposite side of the partition within a shared home cage, experiencing further sensory contact for the subsequent 24 h. In contrast, control mice were maintained in their home cages and allowed to explore the empty defeat cages for 10 min each day.
Mice were placed individually in a transparent glass cylinder (25 cm high, 10 cm wide) filled with water (temperature 23–25 °C) to a depth of 10 cm, and prevented from making contact with the bottom. Mice behaviors were videotaped from each side. The observation period lasted for 6 min, with the final 4 min used to measure immobile behavior, which was processed using the AnyMaze Tracking System (Stoelting).

C57BL/6J mice after CSDS [9] = test: Chronic social defeat stress (CSDS) model, sucrose preference test; type: in vivo
Procedure: as §1
Mice were individually housed with two identical bottles containing either 1% sucrose solution or tap water for 24 h. The bottles were then replaced to eliminate potential positional bias, followed by an additional 24‐h period with the same solutions. Subsequently, the mice were provided with tap water for 24 h. During the experimental phase, new bottles filled with either 1% sucrose solution or tap water were presented for 24 h, and the bottles were changed every 12 h. The bottles were weighed both before and after the 24‐h test to assess consumption of each solution.

C57BL/6J mice after CSDS [10] = test: CSDS model, social interaction test; type: in vivo; settings: single i.p. injection 10 mg kg−1
Procedure: as §1
C57BL/6J mice, comprising both control and experimental groups, were placed individually into the social open field with a plexiglass enclosure positioned along the side wall. Movement parameters, including the time spent in the interaction zone, corner zones, and locomotion, were monitored and analyzed over the two test sessions using the AnyMaze Tracking System. In the first session, the mice freely explored the arena for 2.5 min. Then, a new aggressive CD‐1 mouse was introduced into the plexiglass enclosure, and the experimental mice returned to the arena for the second 2.5‐min session. The social interaction ratio was determined as the ratio between the time the experimental mice spent in the interaction zone when the target CD‐1 was present and the time spent in the zone when it was absent.

C57BL/6J mice [11] = test: DOI-induced head twitch response (HTR); type: in vivo; settings: 10 mg kg−1, 30-min test period
Procedure: Male C57BL/6J mice were habituated to the testing chambers for 30 min and 24 h after receiving acute doses of (S)‐ketamine (10 mg kg^−1, i.p.) or JX3212 (10 mg kg^−1, i.p.). Thirty minutes later, the mice received DOI at a dose of 5 mg kg^−1 (i.p.), and the head‐twitch response was scored over 30 min.

[12] = serum, 10 mg/kg, 21-day chronic administration, individual animals
[13] = single i.p. injection 10 mg kg−1

Question: How did the “treadmill running distance vs vehicle (in words)” value (mice [1]) turn out when `CN(C)CCCN1c2ccccc2CCc2ccccc21` [imipramine] was run?
Answer: Its value is “notably reduced”.

Question: And the “rotarod falling latency vs vehicle (in words)” value (mice [2])?
Answer: The value was “notably reduced falling latency”.

Question: And the “OFT total and central distance traveled (in words)” value (C57BL/6J mice [3])?
Answer: Its value is “no pronounced differences”.

Question: And the “NSFT antidepressant-like effect (in words)” value (C57BL/6J mice [4]; imipramine 15 mg kg−1, single administration)?
Answer: Its value is “failed to produce antidepressant‐like effects”.

Question: What about the “food intake in home cage after NSFT (in words)” value (C57BL/6J mice [4]; repeated administration, vs vehicle) of the same compound?
Answer: Its value is “significant increase in food intake”.

Question: What about the “NSFT antidepressant-like response after repeated administration (in words)” value (C57BL/6J mice [4]; seven days, imipramine 15 mg kg−1, JX3212 3/10 mg kg−1) of the same compound?
Answer: The value was “elicited significant antidepressant‐like responses”.

Question: And the “body weight during 21-day chronic administration (in words)” value (mice [5]; 10 mg kg−1 per day, vs vehicle)?
Answer: The value was “marked increase in body weight”.

Question: And the Body weight (mice [5]; 10 mg/kg, day 7, individual animals)?
Answer: The Body weight was 24.5 (2×) and 25.5 (2×) and 25.8 and 25.3 and 24.2 and 25.4 and 24.9 and 26.

Question: What about the Body weight (mice [5]; 10 mg/kg, day 8, individual animals) of the same compound?
Answer: Its Body weight is 25.5 and 24.5 and 24.8 (2×) and 26.1 and 24.4 and 25.3 (2×) and 26.2 and 25.8.

Question: And the Body weight (mice [5]; 10 mg/kg, day 9, individual animals)?
Answer: The Body weight was 26.3 and 25.3 (2×) and 26 and 25.4 and 25.8 and 26.4 and 24.8 and 25 and 24.6.

Question: And the Body weight (mice [5]; 10 mg/kg, day 10, individual animals)?
Answer: The Body weight was 26.1 and 26 (2×) and 25.3 (3×) and 25.5 and 25.2 and 26.3 and 24.9.

Question: And the Body weight (mice [5]; 10 mg/kg, day 11, individual animals)?
Answer: Its Body weight is 26.1 (2×) and 25.7 (2×) and 24.8 and 24.6 and 24.4 and 25.4 and 26 and 24.7.

Question: What about the Body weight (mice [5]; 10 mg/kg, day 12, individual animals) of the same compound?
Answer: The Body weight was 26.1 and 26.9 and 25 (2×) and 27.4 and 25.8 (2×) and 26.2 and 24.9 and 26.6.

Question: What about the Body weight (mice [5]; 10 mg/kg, day 13, individual animals) of the same compound?
Answer: The Body weight was 25.3 (3×) and 26.2 and 26.5 and 27.2 and 26.4 and 27.3 and 25.6 (2×).

Question: And the Body weight (mice [5]; 10 mg/kg, day 14, individual animals)?
Answer: Its Body weight is 25.3 and 25.8 and 26.8 (2×) and 25.7 and 26.7 and 27.4 and 26.6 and 26.4 and 27.1.

Question: What about the Body weight (mice [5]; 10 mg/kg, day 15, individual animals) of the same compound?
Answer: Its Body weight is 27.1 and 25.5 and 25.4 and 25.6 and 26.4 (2×) and 25.8 and 27.3 and 26.3 and 26.

Question: What about the Body weight (mice [5]; 10 mg/kg, day 16, individual animals) of the same compound?
Answer: Its Body weight is 27.2 (2×) and 26.3 and 26.5 and 25.8 and 26.7 and 25.4 and 26.1 and 26.9 and 25.7.

Question: What about the “serum alanine aminotransferase level (in words)” value (mice [5]; 21-day administration) of the same compound?
Answer: The value was “significant increase in alanine aminotransferase levels”.

Question: And the “serum aspartate aminotransferase and urea levels (in words)” value (mice [5]; 21-day administration)?
Answer: The value was “comparable”.

Question: What about the “serum creatinine level (in words)” value (mice [5]; 21-day administration) of the same compound?
Answer: Its value is “marked decreases in creatinine levels”.

Question: And the ALT (mice [5]; [12])?
Answer: Its ALT is 39 and 34 and 31 and 33 and 48 and 37 and 52 and 40.

Question: What about the AST (mice [5]; [12]) of the same compound?
Answer: Its AST is 151 and 169 and 124 and 111 and 168 and 222 and 112 and 198 and 207.

Question: And the Cr (mice [5]; [12])?
Answer: The Cr was 19 and 18 and 20 and 23 and 22.

Question: And the “shuttle box active avoidance responses (in words)” value (mice [6]; chronic 10 mg kg−1 per day)?
Answer: The value was “no significant differences”.

Question: What about the “SBT active avoidance responses, single mice” value (mice [6]; chronic 10 mg/kg per day (Fig 5G)) of the same compound?
Answer: The value was 27 and 32 and 29 and 20 and 23 and 22.

Question: What about the “Y-maze alternation percentage vs vehicle (in words)” value (mice [7]) of the same compound?
Answer: The value was “significantly reduced”.

Question: What does the source list for `CN[C@]1(c2ccccc2Cl)CCCCC1=O` [(S)‐ketamine]?
Answer: FST immobility time after CSDS, single mice (C57BL/6J mice after CSDS [8]; 10 mg/kg (Fig 3I)): 77.33 and 102.37 and 98.48 and 95.78 and 108.86 and 103.57 and 122.58; CSDS: immobility in FST (in words) (C57BL/6J mice after CSDS [8]; [13]): no significant impact; SPT sucrose preference after CSDS, single mice (C57BL/6J mice after CSDS [9]; 10 mg/kg (Fig 3H)): 0.9625 and 0.9959 and 0.9967 and 0.7227 and 0.9713 and 0.6431 and 0.7826 and 0.9953; CSDS: sucrose preference in SPT (in words) (C57BL/6J mice after CSDS [9]; [13]): increased sucrose preference; CSDS: time spent in corners in SIT (in words) (C57BL/6J mice after CSDS [10]): shorter duration spent in the corners; NSFT latency to feed (in words) (C57BL/6J mice [4]; single dose 10 mg kg−1 i.p., 1 h after administration): significantly reduced the latency to feed; number of DOI-induced head twitches vs vehicle (in words) (C57BL/6J mice [11]): significantly more
